Test results taken from patent US10118895B2, “ROR gamma (RORγ) modulators” (LEAD PHARMA HOLDING B.V., priority 2015, dated 2018).

Target: T1, RORγ (Homo sapiens, UniProt P51449)
T1 construct: expressed in transfected cells; host or cells: 293FT cells (Invitrogen), expression vector pFN26A (Promega)
T1 sequence (P51449 269-508 limits assumed): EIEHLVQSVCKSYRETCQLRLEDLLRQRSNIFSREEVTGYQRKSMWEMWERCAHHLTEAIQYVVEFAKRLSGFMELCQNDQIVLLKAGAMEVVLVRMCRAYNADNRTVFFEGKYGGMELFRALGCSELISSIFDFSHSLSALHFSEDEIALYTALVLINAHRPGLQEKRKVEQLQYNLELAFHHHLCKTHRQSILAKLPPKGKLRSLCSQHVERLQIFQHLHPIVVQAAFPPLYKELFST
Assay: RORγ GAL4 reporter gene assay (luciferase readout, 293FT cells)
Type: cell-based
Settings: inhibition of RORγ (GAL4-RORγ-LBD) in transfected 293FT cells, luciferase signal, overnight incubation; read-out: mean pIC50 (converted)
Protocol: RORγ GAL4 Reporter Gene Assay
Example inhibitors 1-38 were tested for their ability to inhibit RORγ activity in a RORγ GAL4 reporter gene assay. The assay procedure and results are described below.
RORγ GAL4 Reporter Gene Assay Description
A GAL4 one-hybrid reporter system employing luciferase readout was established to determine inhibition of RORγ in 293FT cells. The RORγ ligand-binding domain (LBD) was fused to the yeast GAL4 DNA binding domain (DBD) and placed under the control of the human cytomegalovirus (CMV) immediate early promoter, using expression vector pFN26A (Promega) and standard recombinant DNA cloning methods. To serve as a control in the assay, a similar vector was generated in which the GAL4-DBD was fused to Herpes simplex virus protein 16 (VP16), a constitutive transcriptional activator.
To monitor the inhibitory effect of compounds on RORγ, a transcriptional reporter construct was used. The pGL4.35 vector (Promega) contains nine copies of the GAL4 Upstream Activator Sequence (UAS). This sequence drives the transcription of the luciferase reporter gene luc2P in response to binding of a fusion protein containing the GAL4 DNA binding domain, as for example expressed by the GAL4-RORγ-LBD and GAL4-VP16 expression vectors described above. To allow a GAL4 fusion protein to drive the expression of the luciferase reporter, the pGL4.35 expression vector and the appropriate GAL4 fusion protein expression vector were bulk transfected in the 293FT cells using standard transfection techniques.
The day after transfection, cells were plated into 96 well plates, test compound was added and the plates were incubated overnight. Subsequently, the firefly luciferase activity was quantified using luciferase detection reagent and luminescence readout.
Detailed Assay Description
293FT cells (Invitrogen) were transfected with a GAL4 fusion protein expression vector (as described above) and the transcriptional reporter construct (pGL4.35, Promega). 60 μL of TransIT-293 transfection reagent (Mirus Bio) was added drop wise to 1500 μl Opti-MEM I Reduced Serum Medium (Invitrogen) and incubated at RT (RT) for 5 to 20 minutes. 1500 μL of this reagent mixture was added to 5 μg of GAL4 fusion protein expression vector and 5 μg of the transcriptional reporter construct, and incubated at RT for 20 minutes.
To harvest 293FT cells from a T75 flask, first the culture medium was taken off the cells. Subsequently, the cells were washed with Phosphate Buffered Saline (PBS) (Lonza), after which the PBS was removed. To dissociate the cells, 1 ml of TrypLE Express (Invitrogen) was added to the flask, followed by incubation at RT until the cells visually started to detach. Cells were collected in 5 mL of assay medium (DMEM culture medium (Lonza), 10% dialyzed FBS (Invitrogen) and Pen/Strep (Lonza)) to achieve a single cell suspension. 10×10^6 cells were spun down and re-suspended in 10 mL of assay medium. Subsequently, the cell suspension was added to the transfection mix tube, and then transferred as a whole to a T75 flask (Greiner), followed by overnight (16-24 hours) incubation at 37° C. and 5% CO2.
For compound screening, the cells were harvested (as described above) and counted. 13×10^6 cells were spun down, the supernatant was aspirated and the cells were re-suspended in 17.3 mL of assay medium obtaining a cell suspension of 0.75×10^6 cells/mL. 80 μL of cell suspension (60,000 cells) was plated per well into a white, flat bottom, tissue culture treated, 96 well screening plates (Greiner).
Test compounds were diluted, starting from a 10 mM dimethylsulfoxide (DMSO) stock solution, to serial dilutions in DMSO at 500× the final test concentration. Subsequently, these solutions were diluted to 5× the final test concentration in two 10-fold-dilution steps in assay medium. The final DMSO concentration of the 5× test compound solution was 1%. […]

SMILES | IC50 [nM]
CCCC(O)(c1ccc(NC(=O)Cc2ccc(S(=O)(=O)CC3CC3)nc2)cc1)C(F)(F)F (centres unmarked) [Example 11, 2-[6-(cyclopropylmethylsulfonyl)-3-pyridyl]-N-[4-[1-hydroxy-1-(trifluoromethyl)butyl]phenyl]acetamide] | ≤ 1000
CC(C)CC(O)(c1ccc(NC(=O)Cc2ccc(S(=O)(=O)CC3CC3)nc2)cc1)C(F)(F)F (centres unmarked) [Example 12, 2-[6-(cyclopropylmethylsulfonyl)-3-pyridyl]-N-[4-[1-hydroxy-3-methyl-1-(trifluoromethyl)butyl]phenyl]acetamide] | ≤ 100
CC(C)CCC(O)(c1ccc(NC(=O)Cc2ccc(S(=O)(=O)CC3CC3)nc2)cc1)C(F)(F)F (centres unmarked) [Example 13, 2-[6-(cyclopropylmethylsulfonyl)-3-pyridyl]-N-[4-[1-hydroxy-4-methyl-1-(trifluoromethyl)pentyl]phenyl]acetamide] | ≤ 1000
O=C(Cc1ccc(S(=O)(=O)CC2CC2)nc1)Nc1ccc(C(O)(C2CCCC2)C(F)(F)F)cc1 (centres unmarked) [Example 14, N-[4-(1-cyclopentyl-2,2,2-trifluoro-1-hydroxy-ethyl)phenyl]-2-[6-(cyclopropylmethylsulfonyl)-3-pyridyl]acetamide] | ≤ 1000
O=C(Cc1ccc(S(=O)(=O)CC2CC2)nc1)Nc1ccc(C(O)(CC2CCCC2)C(F)(F)F)cc1 (centres unmarked) [Example 15, N-[4-[1-(cyclopentylmethyl)-2,2,2-trifluoro-1-hydroxy-ethyl]phenyl]-2-[6-(cyclopropylmethylsulfonyl)-3-pyridyl]acetamide] | ≤ 1000
O=C(Cc1ccc(S(=O)(=O)CC2CC2)nc1)Nc1ccc(C(O)(CC2CCCCC2)C(F)(F)F)cc1 (centres unmarked) [Example 16, N-[4-[1-(cyclohexylmethyl)-2,2,2-trifluoro-1-hydroxy-ethyl]phenyl]-2-[6-(cyclopropylmethylsulfonyl)-3-pyridyl]acetamide] | ≤ 1000
O=C(Cc1ccc(S(=O)(=O)CC2CC2)nc1)Nc1ccc(C(O)(C2CC2)C2CC2)cc1 [Example 18, 2-[6-(cyclopropylmethylsulfonyl)-3-pyridyl]-N-[4-[dicyclopropyl(hydroxy)methyl]phenyl]acetamide] | ≤ 1000
O=C(Cc1ccc(S(=O)(=O)CC2CC2)nc1)Nc1ccc(C(O)(c2ccccc2)C(F)(F)F)cc1 (centres unmarked) [Example 19, 2-[6-(cyclopropylmethylsulfonyl)-3-pyridyl]-N-[4-(2,2,2-trifluoro-1-hydroxy-1-phenyl-ethyl)phenyl]acetamide] | ≤ 100
Cc1cc(S(=O)(=O)CC2CC2)ncc1CC(=O)Nc1ccc(C(O)(C(F)(F)F)C(F)(F)F)cc1 [Example 23, 2-[6-(cyclopropylmethylsulfonyl)-4-methyl-3-pyridyl]-N-[4-[2,2,2-trifluoro-1-hydroxy-1-(trifluoromethyl)ethyl]phenyl]acetamide] | ≤ 1000
Cc1nc(S(=O)(=O)CC2CC2)ccc1CC(=O)Nc1ccc(C(O)(C(F)(F)F)C(F)(F)F)cc1 [Example 24, 2-[6-(cyclopropylmethylsulfonyl)-2-methyl-3-pyridyl]-N-[4-[2,2,2-trifluoro-1-hydroxy-1-(trifluoromethyl)ethyl]phenyl]acetamide] | ≤ 1000
O=C(Cc1ccc(S(=O)(=O)CC2CC2)nc1)Nc1ccc(C(OCC2COC2)(C(F)(F)F)C(F)(F)F)cc1 [Example 26, 2-[6-(cyclopropylmethylsulfonyl)-3-pyridyl]-N-[4-[2,2,2-trifluoro-1-(oxetan-3-ylmethoxy)-1-(trifluoromethyl)ethyl]phenyl]acetamide] | ≤ 1000
COCCOC(c1ccc(NC(=O)Cc2ccc(S(=O)(=O)CC3CC3)nc2)cc1)(C(F)(F)F)C(F)(F)F [Example 27, 2-[6-(cyclopropylmethylsulfonyl)-3-pyridyl]-N-[4-[2,2,2-trifluoro-1-(2-methoxyethoxy)-1-(trifluoromethyl)ethyl]phenyl]acetamide] | ≤ 100
O=C(Cc1ccc(S(=O)(=O)CC2CC2)nc1)Nc1ccc(C(OCCO)(C(F)(F)F)C(F)(F)F)cc1 [Example 28, 2-[6-(cyclopropylmethylsulfonyl)-3-pyridyl]-N-[4-[2,2,2-trifluoro-1-(2-hydroxyethoxy)-1-(trifluoromethyl)ethyl]phenyl]acetamide] | ≤ 1000
O=C(Cc1ccc(S(=O)(=O)CC2CC2)cn1)Nc1ccc(C(O)(C(F)(F)F)C(F)(F)F)cc1 [Example 29, 2-[5-(cyclopropylmethylsulfonyl)-2-pyridyl]-N-[4-[2,2,2-trifluoro-1-hydroxy-1-(trifluoromethyl)ethyl]phenyl]acetamide] | ≤ 100
CC(C)OC(c1ccc(NC(=O)Cc2ccc(S(=O)(=O)CC3CC3)cn2)cc1)(C(F)(F)F)C(F)(F)F [Example 30, 2-[5-(cyclopropylmethylsulfonyl)-2-pyridyl]-N-[4-[2,2,2-trifluoro-1-isopropoxy-1-(trifluoromethyl)ethyl]phenyl]acetamide] | ≤ 100
O=C(Cc1ccc(S(=O)(=O)CC2CC2)cn1)Nc1ccc(C(O)(C2CC2)C2CC2)cc1 [Example 33, 2-[5-(cyclopropylmethylsulfonyl)-2-pyridyl]-N-[4-[dicyclopropyl(hydroxy)methyl]phenyl]acetamide] | ≤ 1000
COC(c1ccc(NC(=O)Cc2ccc(S(=O)(=O)CC3CC3)cn2)cc1)(C(F)(F)F)C(F)(F)F [Example 34, 2-[5-(cyclopropylmethylsulfonyl)-2-pyridyl]-N-[4-[2,2,2-trifluoro-1-methoxy-1-(trifluoromethyl)ethyl]phenyl]acetamide] | ≤ 100
O=C(Cc1ncc(S(=O)(=O)CC2CC2)cn1)Nc1ccc(C(O)(C(F)(F)F)C(F)(F)F)cc1 [Example 35, 2-[5-(cyclopropylmethylsulfonyl)pyrimidin-2-yl]-N-[4-[2,2,2-trifluoro-1-hydroxy-1-(trifluoromethyl)ethyl]phenyl]acetamide] | ≤ 1000
O=C(Cc1ccc(S(=O)(=O)CC2CC2)nn1)Nc1ccc(C(O)(C(F)(F)F)C(F)(F)F)cc1 [Example 37, 2-[6-(cyclopropylmethylsulfonyl)pyridazin-3-yl]-N-[4-[2,2,2-trifluoro-1-hydroxy-1-(trifluoromethyl)ethyl]phenyl]acetamide] | ≤ 1000
O=C(Cc1cnc(S(=O)(=O)CC2CC2)nc1)Nc1ccc(C(O)(C(F)(F)F)C(F)(F)F)cc1 [Example 38, 2-[2-(cyclopropylmethylsulfonyl)pyrimidin-5-yl]-N-[4-[2,2,2-trifluoro-1-hydroxy-1-(trifluoromethyl)ethyl]phenyl]acetamide] | ≤ 1000
